Calls of active or inactive are those of the source.
How the values were obtained:
Protein skinhead-1 = molecular target: T1, Protein skinhead-1 (Caenorhabditis elegans, UniProt P34707); type: functional
T1 sequence (P34707 whole entry): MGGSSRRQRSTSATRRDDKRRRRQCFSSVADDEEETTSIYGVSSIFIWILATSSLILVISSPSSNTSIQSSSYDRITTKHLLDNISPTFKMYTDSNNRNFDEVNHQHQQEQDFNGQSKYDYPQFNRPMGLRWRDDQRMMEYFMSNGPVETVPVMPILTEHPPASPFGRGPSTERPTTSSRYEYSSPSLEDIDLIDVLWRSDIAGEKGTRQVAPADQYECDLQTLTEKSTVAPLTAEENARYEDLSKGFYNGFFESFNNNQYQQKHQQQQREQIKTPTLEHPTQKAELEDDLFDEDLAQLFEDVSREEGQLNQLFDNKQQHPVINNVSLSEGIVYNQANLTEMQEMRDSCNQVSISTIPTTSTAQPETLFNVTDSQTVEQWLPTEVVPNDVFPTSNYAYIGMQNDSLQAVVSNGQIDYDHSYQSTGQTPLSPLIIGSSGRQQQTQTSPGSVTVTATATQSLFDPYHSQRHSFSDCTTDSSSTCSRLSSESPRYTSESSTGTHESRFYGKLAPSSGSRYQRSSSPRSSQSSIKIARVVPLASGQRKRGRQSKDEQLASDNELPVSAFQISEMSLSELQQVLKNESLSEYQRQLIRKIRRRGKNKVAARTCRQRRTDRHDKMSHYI

[1] = molecular target: T2, Polyadenylate-binding protein 1 (Homo sapiens, UniProt P11940); assay: MLLE domain peptide-binding blockers, IC50 – biochemical, fluorescence polarization, FITC-PAM2 peptide, dose response (AID 602259); type: functional; conditions: read-out: IC50_Mean
T2 sequence (P11940 whole entry, the tested form may be a part): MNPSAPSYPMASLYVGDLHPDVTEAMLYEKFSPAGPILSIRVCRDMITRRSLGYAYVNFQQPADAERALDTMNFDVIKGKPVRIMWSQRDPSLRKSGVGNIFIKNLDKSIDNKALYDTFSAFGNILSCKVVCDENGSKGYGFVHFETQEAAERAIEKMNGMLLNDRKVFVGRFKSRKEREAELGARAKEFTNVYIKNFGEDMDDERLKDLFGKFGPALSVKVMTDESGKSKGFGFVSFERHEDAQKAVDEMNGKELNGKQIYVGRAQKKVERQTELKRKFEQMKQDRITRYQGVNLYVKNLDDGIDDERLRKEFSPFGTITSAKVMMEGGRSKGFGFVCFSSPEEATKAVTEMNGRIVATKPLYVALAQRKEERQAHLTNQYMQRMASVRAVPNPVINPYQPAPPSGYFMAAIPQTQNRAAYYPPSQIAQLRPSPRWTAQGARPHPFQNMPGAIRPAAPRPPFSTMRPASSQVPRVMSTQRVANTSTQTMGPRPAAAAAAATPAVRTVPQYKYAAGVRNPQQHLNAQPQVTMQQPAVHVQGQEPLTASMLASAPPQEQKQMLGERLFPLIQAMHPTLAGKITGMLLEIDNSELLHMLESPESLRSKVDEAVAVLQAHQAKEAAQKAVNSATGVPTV

[2] = molecular target: T2, Polyadenylate-binding protein 1; assay: MLLE binding blockers, Cy5 peptide tracer – biochemical, fluorescence polarization, Cy5-PAM2 peptide, secondary, miRNA deadenylation inhibitor project, dose response (AID 602260); type: functional; conditions: read-out: IC50_Mean
[3] = molecular target: T3, Corticotropin-releasing factor receptor 2/Corticotropin-releasing factor-binding protein (Homo sapiens, UniProt P24387+Q13324); assay: activators of CRF receptor 2 with binding protein – uHTS hits, confirmation (AID 602473); type: functional; conditions: read-out: EC50_Mean
T3 sequence (Q13324 whole entry): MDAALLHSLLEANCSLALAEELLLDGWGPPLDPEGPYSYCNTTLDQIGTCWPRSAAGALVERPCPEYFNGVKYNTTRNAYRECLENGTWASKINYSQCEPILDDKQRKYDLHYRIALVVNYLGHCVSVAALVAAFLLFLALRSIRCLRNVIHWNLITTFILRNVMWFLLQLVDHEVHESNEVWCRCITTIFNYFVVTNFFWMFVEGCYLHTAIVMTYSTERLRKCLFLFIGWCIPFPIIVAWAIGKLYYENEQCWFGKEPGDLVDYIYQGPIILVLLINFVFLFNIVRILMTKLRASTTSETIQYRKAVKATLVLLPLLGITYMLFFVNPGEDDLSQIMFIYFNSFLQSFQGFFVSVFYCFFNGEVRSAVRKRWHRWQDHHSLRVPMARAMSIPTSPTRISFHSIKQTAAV
T3 sequence (P24387 whole entry): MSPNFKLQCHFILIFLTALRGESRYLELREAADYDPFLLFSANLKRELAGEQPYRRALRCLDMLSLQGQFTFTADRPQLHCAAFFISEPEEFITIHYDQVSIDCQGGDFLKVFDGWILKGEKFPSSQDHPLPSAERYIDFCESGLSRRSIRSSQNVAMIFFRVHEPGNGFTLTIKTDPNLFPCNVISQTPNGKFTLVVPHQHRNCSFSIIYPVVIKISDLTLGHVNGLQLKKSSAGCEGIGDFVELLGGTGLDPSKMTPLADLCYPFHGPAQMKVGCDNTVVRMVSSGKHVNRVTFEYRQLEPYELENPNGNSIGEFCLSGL

[4] = molecular target: T3, Corticotropin-releasing factor receptor 2/Corticotropin-releasing factor-binding protein; assay: Dose Response confirmation of uHTS hits for small molecule antagonists of the CRF-binding protein and CRF-R2 receptor complex.; type: functional; conditions: read-out: IC50_Mean
[5] = loss of viability in HepG2 cells – cell-based, CellTiter-Glo, cherry-picked, cytotoxicity control for Shn3 inhibitor project, dose response (AID 624134); type: functional
[6] = reduction of Shn3 3'UTR-driven luciferase in osteoblasts – cell-based, Clone20 osteoblasts, firefly luciferase, cherry-picked, dose response (AID 624132); type: functional;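 note: firefly luciferase luminescence from reporter carrying the Shn3 3'UTR in osteoblasts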
[7] = non-specific 3'UTR reporter inhibition in Clone20-Shn3RL – cell-based, Renilla luciferase, cherry-picked, counter-screen for Shn3 inhibitor project, dose response (AID 624133); type: functional
Fatty acid synthase [8] = molecular target: T4, Fatty acid synthase (Homo sapiens, UniProt P49327); assay: inhibition of human FAS-TE enzyme activity – biochemical, endpoint fluorescence intensity, uHTS hits, dose response (AID 624327); type: functional;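 note: fluorescence from hydrolysis of an O-methyl fluorescein acyl ester substrate by the enzyme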
T4 sequence (P49327 whole entry): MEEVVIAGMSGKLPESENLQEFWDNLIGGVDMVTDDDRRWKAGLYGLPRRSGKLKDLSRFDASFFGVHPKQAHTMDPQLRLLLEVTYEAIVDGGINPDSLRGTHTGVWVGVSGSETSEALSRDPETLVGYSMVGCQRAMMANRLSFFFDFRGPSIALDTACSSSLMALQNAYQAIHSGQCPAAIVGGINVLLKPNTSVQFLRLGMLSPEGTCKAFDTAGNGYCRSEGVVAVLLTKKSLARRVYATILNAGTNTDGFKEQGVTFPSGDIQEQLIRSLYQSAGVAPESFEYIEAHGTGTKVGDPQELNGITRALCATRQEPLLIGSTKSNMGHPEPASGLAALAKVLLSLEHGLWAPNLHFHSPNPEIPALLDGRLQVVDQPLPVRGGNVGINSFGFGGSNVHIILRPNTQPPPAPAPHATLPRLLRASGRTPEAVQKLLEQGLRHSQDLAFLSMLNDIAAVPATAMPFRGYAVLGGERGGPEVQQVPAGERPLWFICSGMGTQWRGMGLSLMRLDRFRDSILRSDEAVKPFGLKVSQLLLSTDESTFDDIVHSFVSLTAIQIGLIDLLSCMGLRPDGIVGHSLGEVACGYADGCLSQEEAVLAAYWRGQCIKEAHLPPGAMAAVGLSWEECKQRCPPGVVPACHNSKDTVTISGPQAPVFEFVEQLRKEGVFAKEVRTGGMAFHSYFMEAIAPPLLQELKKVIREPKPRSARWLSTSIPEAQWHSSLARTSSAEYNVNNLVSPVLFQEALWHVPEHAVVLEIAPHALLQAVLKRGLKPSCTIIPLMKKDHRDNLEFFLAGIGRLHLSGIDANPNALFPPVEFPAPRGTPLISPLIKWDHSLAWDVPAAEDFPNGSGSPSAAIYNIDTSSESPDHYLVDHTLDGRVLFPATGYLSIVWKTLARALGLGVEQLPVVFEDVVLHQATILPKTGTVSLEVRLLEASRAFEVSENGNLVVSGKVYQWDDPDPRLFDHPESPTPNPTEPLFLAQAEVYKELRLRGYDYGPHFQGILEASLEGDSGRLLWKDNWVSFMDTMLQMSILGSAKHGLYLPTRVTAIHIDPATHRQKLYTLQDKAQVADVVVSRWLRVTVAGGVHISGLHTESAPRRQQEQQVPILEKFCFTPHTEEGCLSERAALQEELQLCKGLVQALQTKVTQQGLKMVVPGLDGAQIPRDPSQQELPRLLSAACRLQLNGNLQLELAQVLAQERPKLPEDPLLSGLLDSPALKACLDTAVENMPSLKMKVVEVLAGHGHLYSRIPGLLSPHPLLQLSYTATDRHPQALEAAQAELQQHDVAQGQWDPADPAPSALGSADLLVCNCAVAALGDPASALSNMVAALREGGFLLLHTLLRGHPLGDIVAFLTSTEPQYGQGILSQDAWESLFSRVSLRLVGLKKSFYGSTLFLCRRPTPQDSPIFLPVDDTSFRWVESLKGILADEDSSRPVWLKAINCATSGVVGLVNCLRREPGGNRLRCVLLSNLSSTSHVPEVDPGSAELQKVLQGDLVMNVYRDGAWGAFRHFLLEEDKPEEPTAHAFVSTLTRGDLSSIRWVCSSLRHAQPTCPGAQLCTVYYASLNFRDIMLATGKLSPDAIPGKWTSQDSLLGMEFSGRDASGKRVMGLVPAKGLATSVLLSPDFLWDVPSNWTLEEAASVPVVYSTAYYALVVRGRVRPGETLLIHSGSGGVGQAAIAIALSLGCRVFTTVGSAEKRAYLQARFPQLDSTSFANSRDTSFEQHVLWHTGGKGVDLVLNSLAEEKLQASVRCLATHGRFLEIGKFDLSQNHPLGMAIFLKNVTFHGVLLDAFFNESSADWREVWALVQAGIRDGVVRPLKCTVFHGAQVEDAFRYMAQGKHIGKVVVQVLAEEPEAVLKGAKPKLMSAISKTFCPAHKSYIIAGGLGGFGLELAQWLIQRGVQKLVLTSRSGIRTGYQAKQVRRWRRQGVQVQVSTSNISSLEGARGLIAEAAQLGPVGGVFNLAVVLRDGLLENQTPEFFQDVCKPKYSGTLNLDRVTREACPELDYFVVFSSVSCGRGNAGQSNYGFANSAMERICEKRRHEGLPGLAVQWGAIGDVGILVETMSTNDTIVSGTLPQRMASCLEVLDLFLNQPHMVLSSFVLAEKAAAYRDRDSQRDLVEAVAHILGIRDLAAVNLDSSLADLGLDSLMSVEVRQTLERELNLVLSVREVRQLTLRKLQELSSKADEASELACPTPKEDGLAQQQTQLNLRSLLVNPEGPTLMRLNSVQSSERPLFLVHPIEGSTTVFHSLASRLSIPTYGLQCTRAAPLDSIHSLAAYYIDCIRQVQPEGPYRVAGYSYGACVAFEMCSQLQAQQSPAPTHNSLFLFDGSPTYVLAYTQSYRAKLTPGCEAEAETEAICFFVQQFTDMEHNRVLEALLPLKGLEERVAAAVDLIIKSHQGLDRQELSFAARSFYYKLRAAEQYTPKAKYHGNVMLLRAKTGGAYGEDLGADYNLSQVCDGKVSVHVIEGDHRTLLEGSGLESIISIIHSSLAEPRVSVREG

Fatty acid synthase [9] = molecular target: T4, Fatty acid synthase; assay: inhibition of human FAS-TE enzyme activity – biochemical, kinetic fluorescence intensity, dose response (AID 624326); type: functional;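 note: rate of fluorescence rise from hydrolysis of a fluorogenic O-methyl fluorescein ester substrate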
[10] = molecular target: FAD-linked sulfhydryl oxidase ALR (Homo sapiens, UniProt P55789); assay: ALR-catalysed DTT oxidation blockers – biochemical, H2O2 detection, luminescence, cherry-pick, dose response (AID 493248)
Sequence of FAD-linked sulfhydryl oxidase ALR (P55789 whole entry): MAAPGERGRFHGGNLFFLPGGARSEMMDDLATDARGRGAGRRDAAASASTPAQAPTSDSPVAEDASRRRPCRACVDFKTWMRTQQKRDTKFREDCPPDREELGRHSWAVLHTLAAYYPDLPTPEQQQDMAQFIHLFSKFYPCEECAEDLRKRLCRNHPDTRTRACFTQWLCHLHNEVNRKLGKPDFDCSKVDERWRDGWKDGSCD

cells [11] = type: functional, cell-based
cells [12] = type: functional, cell-based; remark: listed apart in the source
Estrogen receptor = molecular target: T5, Estrogen receptor (Homo sapiens, UniProt P03372);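 note: potency for inhibiting coactivator peptide recruitment to the receptor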
T5 sequence (P03372 whole entry): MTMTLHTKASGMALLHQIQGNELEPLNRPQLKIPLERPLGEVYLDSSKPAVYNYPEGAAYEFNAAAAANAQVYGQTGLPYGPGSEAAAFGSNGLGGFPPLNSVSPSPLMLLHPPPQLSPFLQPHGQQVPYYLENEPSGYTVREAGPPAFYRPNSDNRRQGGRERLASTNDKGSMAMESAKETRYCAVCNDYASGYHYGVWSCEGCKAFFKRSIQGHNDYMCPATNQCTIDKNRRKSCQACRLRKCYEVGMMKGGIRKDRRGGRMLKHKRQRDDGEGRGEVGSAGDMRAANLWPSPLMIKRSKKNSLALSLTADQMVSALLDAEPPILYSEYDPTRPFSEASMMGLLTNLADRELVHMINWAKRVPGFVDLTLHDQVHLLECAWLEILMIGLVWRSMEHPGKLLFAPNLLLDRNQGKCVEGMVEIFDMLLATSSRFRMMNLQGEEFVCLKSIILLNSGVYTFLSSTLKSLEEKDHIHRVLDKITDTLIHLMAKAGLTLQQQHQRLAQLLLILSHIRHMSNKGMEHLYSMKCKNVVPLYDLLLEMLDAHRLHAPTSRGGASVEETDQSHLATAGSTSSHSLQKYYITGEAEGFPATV

Cytochrome P450 2D6 = Cytochrome P450 2D6 (Homo sapiens, UniProt P10635);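 note: CYP2D6 member of a cytochrome P450 panel assay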
Sequence of Cytochrome P450 2D6 (P10635 whole entry): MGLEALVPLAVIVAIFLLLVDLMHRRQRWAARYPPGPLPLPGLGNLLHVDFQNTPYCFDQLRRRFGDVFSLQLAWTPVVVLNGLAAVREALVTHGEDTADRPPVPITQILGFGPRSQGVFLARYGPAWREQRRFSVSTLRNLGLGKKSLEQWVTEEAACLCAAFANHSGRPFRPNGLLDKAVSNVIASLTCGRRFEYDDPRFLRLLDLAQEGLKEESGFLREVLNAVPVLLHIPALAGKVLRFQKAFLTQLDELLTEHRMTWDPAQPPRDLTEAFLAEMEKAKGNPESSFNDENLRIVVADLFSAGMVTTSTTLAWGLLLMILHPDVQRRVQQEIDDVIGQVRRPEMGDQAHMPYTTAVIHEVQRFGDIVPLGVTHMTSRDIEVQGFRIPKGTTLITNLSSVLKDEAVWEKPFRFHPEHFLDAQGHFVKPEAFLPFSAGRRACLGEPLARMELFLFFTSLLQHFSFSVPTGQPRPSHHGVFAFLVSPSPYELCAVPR

[13] = Luminescence Cell-Based Dose Retest to Confirm Inhibitors of Cancer Stem Cells. [Related pubchem assays (depositor defined):AID2717, AID2721]; type: functional; conditions: Homo sapiens
INS1 = assay: INS-1E survival protection against cytokine death – cell-based, luminescence, retest, dose response (AID 449756); type: functional; conditions: Rattus norvegicus;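 note: cell death triggered by IL-1 beta plus TNF-alpha plus IFN-gamma mixture; protective hits raise ATP signal compared with cytokine alone wells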
[14] = molecular target: T6, Zinc finger protein mex-5 (Caenorhabditis elegans, UniProt Q9XUB2); assay: potency of MEX-5 RNA-binding blockers – biochemical, C. elegans, fluorescence polarization, dose response (AID 1960)
T6 sequence (Q9XUB2 whole entry): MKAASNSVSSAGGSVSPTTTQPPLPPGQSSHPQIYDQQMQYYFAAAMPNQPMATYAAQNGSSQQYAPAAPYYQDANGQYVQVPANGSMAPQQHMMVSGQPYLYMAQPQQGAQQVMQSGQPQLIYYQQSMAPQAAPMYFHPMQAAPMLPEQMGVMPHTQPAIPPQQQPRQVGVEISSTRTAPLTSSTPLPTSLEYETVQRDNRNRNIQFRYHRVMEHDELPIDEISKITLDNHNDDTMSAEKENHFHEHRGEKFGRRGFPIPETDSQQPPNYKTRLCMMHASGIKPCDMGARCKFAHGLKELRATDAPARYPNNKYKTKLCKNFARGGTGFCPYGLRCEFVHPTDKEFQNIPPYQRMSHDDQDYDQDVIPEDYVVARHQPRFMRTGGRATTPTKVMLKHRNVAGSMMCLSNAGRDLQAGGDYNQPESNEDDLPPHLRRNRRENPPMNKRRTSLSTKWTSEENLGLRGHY

[15] = molecular target: T7, RNA-binding protein pos-1 (Caenorhabditis elegans, UniProt G5EF15); assay: disruptors of C. elegans POS-1 RNA interaction – biochemical, fluorescence polarization, dose response (AID 1964);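 note: purified POS-1 fused to maltose binding protein made in E. coli; potency of compounds blocking POS-1 binding to fluorescent RNA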
T7 sequence (G5EF15 whole entry): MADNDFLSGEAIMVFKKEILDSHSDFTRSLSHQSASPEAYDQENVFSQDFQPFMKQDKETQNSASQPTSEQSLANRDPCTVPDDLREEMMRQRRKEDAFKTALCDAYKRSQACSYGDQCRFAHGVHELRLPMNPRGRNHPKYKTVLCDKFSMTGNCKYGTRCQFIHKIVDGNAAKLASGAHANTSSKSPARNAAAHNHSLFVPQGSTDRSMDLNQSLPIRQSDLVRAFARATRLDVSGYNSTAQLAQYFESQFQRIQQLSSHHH

For O=C(Nc1nccs1)c1ccc2ccccc2n1, the IC50 (Protein skinhead-1) was 21.3 µM (active).
For CCOC(=O)c1sc(NC(=S)NC(=O)c2ccco2)nc1C, the IC50 [1] was > 66 µM (inactive) and the IC50 [2] was > 66 µM (inactive).
For COc1cc2nc(SCc3c(C)noc3C)n(CCC3=CCCCC3)c(=O)c2cc1OC, the EC50 [3] was > 53 µM (inactive) and the IC50 [4] was > 47.1 µM (inactive).
With Cc1ccc(NC(S)=Nc2ccc(F)cc2)cc1 the IC50 [1] was > 66 µM (inactive) and the IC50 [2] was > 66 µM (inactive).
For CCN(CC)S(=O)(=O)c1ccc(-c2ccc(S(=O)(=O)N(CC)CC)cc2)cc1, the AC50 [5] was 6.43 µM (active), the AC50 [6] was 3.81 µM (active) and the AC50 [7] was 3.13 µM (active).
With Cc1cccnc1NC(=S)NC(=O)c1oc2ccccc2c1C the IC50 [1] was > 66 µM (inactive) and the IC50 [2] was > 66 µM (inactive).
For O=C1[C@H]2[C@@H](c3ccc(F)cc3)N3C(=O)N(c4ccccc4)C(=O)[C@@]3(Cc3ccccc3)[C@H]2C(=O)N1C1CCCCC1, the AC50 [5] was 64.9 µM (active), the IC50 (Fatty acid synthase [8]) was 17.5 µM (active) and the IC50 (Fatty acid synthase [9]) was 11 µM (active). For the same molecule, the AC50 [6] was > 70 µM (inactive) and the AC50 [7] was 31.3 µM (active).
For O=C(Nc1ccc2snnc2c1)N1CCSCC1, the IC50 (Protein skinhead-1) was > 100 µM (inactive).
For COC(=O)C(CC(=O)Nc1cc(C)ccc1C)Nc1ccccc1OC (configuration not stated), the AC50 [10] was 13.1 µM (active), the EC50 [3] was > 53 µM (inactive) and the IC50 [4] was > 47.1 µM (inactive).
In the case of CC(=O)N1c2ccc(S(=O)(=O)N3CCC(C(=O)Nc4cccc(F)c4)CC3)cc2CC1C (configuration not stated), the AC50 [5] is reported as 48.7 µM (active), the AC50 [6] is reported as 4.54 µM (active) and the AC50 [7] is reported as 12 µM (active).
For Cc1cccc(NC(=O)C(NS(=O)(=O)c2ccc3c(c2)CCC(=O)N3)c2ccccc2)n1 (configuration not stated), the IC50 [1] was > 66 µM (inactive) and the IC50 [2] was > 66 µM (inactive).
With CC(=O)Nc1sc(-c2ccccc2)nc1-c1ccccc1 the EC50 (cells [11]) was > 350 µM (not active) and the EC50 (cells [12]) was > 350 µM (not active).
With Cc1cc(C(=O)NC(=S)Nc2cccc(NC(=O)C(C)C)c2)ccc1[N+](=O)[O-] the IC50 [1] was > 66 µM (inactive) and the IC50 [2] was > 66 µM (inactive).
In the case of Cc1nn(-c2ccccc2)c(NC(=O)c2cccs2)c(-c2ccccc2Cl)c1=O, the EC50 [3] is reported as > 53 µM (inactive) and the IC50 [4] is reported as > 47.1 µM (inactive).
In the case of Cc1nn(-c2ccccc2)c2sc(C(=O)OCN3C(=O)c4ccccc4C3=O)cc12, the IC50 (Estrogen receptor) is reported as 9.75 µM (active).
With CC1CCCN(C(=O)COC(=O)c2n[nH]c3ccccc23)C1 (configuration not stated) the IC50 (Estrogen receptor) was > 50 µM (not active).
With Cc1sc(NC(=O)c2ccco2)c(C(c2cccnc2)N2CCCC2)c1C (configuration not stated) the AC50 (Cytochrome P450 2D6) was 10 µM (inconclusive) and the IC50 (Protein skinhead-1) was > 100 µM (inactive).
For O=C(c1ccccc1)C(CN1CCCCC1)c1ccccc1 (configuration not stated), the AC50 [5] was 15.7 µM (active), the AC50 [6] was 2.41 µM (active) and the AC50 [7] was 5.56 µM (active).
In the case of CC1CCN(C(=O)C2CCN(S(=O)(=O)c3cccs3)CC2)CC1, the EC50 [3] is reported as > 53 µM (inactive) and the IC50 [4] is reported as > 47.1 µM (inactive).
With CCCCCCCCNS(=O)(=O)CCNCc1ccc(OC)cc1 the EC50 [3] was > 53 µM (inactive) and the IC50 [4] was > 47.1 µM (inactive).
For CN(C)C(=O)CN1C(=O)NC2(CCc3ccccc32)C1=O (configuration not stated), the IC50 (Protein skinhead-1) was > 100 µM (inactive).
For CCCCCNC1=CC(=O)CC(c2ccccc2)C1 (configuration not stated), the EC50 [3] was > 53 µM (inactive) and the IC50 [4] was > 47.1 µM (inactive).
With COc1ccc(NC(=S)N/N=C/c2ccc(F)cc2)cc1OC the IC50 [1] was > 66 µM (inactive) and the IC50 [2] was > 66 µM (inactive).
For O=C(CCSc1nc2ccccc2s1)N/N=C/c1c(O)ccc2ccccc12, the EC50 (cells [11]) was 8.97 µM (active), the EC50 (cells [12]) was 31.3 µM (active) and the AC50 [13] was 4.52 µM (active). For the same molecule, the AC50 (INS1) was 1.95 µM (active), the EC50 [14] was 14.6 µM (active) and the EC50 [15] was 21.2 µM (active).
In the case of Cc1ccc(/C=N/NC(=O)CN2CCN(Cc3ccccc3Cl)CC2)o1, the EC50 (cells [11]) is reported as > 350 µM (not active) and the EC50 (cells [12]) is reported as > 350 µM (not active).
With N#Cc1c(-c2ccccc2)cc(-c2ccco2)c(C#N)c1N the IC50 (Estrogen receptor) was 33.5 µM (not active).

From ChEMBL document CHEMBL1201862, “PubChem BioAssay data set” (2004)
